Laboratory results published in patent publication US12371400B2, “Cathepsin inhibitors” (ACADEMISCH ZIEKENHUIS LEIDEN (H.O.D.N. LUMC), priority 2017, dated 2025).

Columns and labels:
hCatK [1] = molecular target: T1, hCatK (Homo sapiens, UniProt P43235); test: In vitro inhibition of purified human Cathepsin K (fluorogenic substrate Z-FR-AMC); type: biochemical; details: for selectivity for CatK over structurally related human Cathepsins: in words, from Table 2; for IC50: purified human Cathepsin, 30 min incubation with inhibitor, mean ± SD, triplicate
T1 sequence (P43235 115-329): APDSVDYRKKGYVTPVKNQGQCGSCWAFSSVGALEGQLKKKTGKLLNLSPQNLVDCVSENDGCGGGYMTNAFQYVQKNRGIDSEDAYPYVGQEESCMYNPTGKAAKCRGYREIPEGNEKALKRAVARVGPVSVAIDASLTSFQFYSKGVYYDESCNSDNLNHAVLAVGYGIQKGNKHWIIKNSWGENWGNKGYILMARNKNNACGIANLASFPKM
Protocol: (§1) Cathepsin (e.g. Cathepsin K/L/V/S/B), in particular purified human Cathepsin, was diluted in freshly prepared reaction buffer consisting of 50 mM MES pH 5.5, 25 mM EDTA and 2.5 mM DTT. 0.05% Tween20 (v/v) may be added to the reaction buffer of the Cathepsin K.
(§2) Activity assays may be conducted in a suitable manner. In the experiments described herein, the assays were typically conducted in Corning 3820 Low Volume 384 Well Assay Plate with a final assay volume of 20 μL. Plates were shaken at 600 rpm for 1 minute and centrifuged at 1000 rpm for 1 minute prior to incubation. Cathepsin activity was quantified using synthetic fluorogenic peptide substrate Z-FR-AMC (Cath K, L, V), Z-RR-AMC (Cath B) or Z-FVR-AMC (Cath S). Fluorescence intensity (λex=350 nm, λem=440 nm) was measured every 2 minutes in arbitrary units (A.U.) on a CLARIOstar (BMG Labtech) microplate reader and values were converted to product formation [AMC]. […] Measurements were performed in triplicate.
(§3) Inhibitors (200 nL, 100× final concentration in DMSO) were diluted in reaction buffer (10 μL). Purified human Cathepsin (5 μL, 4× final concentration) was added and the reaction mixture was incubated for 30 min at room temperature. Fluorogenic substrate (5 μL, 4× final concentration) was added and fluorescence intensity was measured every 2 minutes for 30-90 minutes.
(§4) The potency of the compounds as CatK inhibitors was assessed in an in vitro inhibition assay on purified human CatK (Table 2). Cathepsin was incubated with inhibitor, and the hydrolysis of substrate was initiated by addition of substrate.

hCatS = hCatS (Homo sapiens, UniProt P25774); test: In vitro inhibition of purified human Cathepsin S (Z-FVR-AMC); type: biochemical; details: 30 min incubation with inhibitor, mean ± SD, triplicate
Protocol: as §1, §2, §3, §4

hCatB = hCatB (Homo sapiens, UniProt P07858); test: In vitro inhibition of purified human Cathepsin B (Z-RR-AMC); type: biochemical; details: 30 min incubation with inhibitor, mean ± SD, triplicate
Protocol: as §1
as §2, with “In the experiments described herein, the assays were typically conducted in Corning 3820 Low Volume 384 Well Assay Plate with a final assay volume of 20 μL.” left out
as §3, §4

hCatK [2] = molecular target: T1, hCatK; test: Kinetic evaluation of covalent inhibitors on purified hCatK; type: biochemical; details: 100 pM hCatK, 4 μM Z-FR-AMC, 26° C., reaction started by addition of CatK; for Ki: read-out: Kl; for kinact: read-out: kinact (converted)
Protocol: The reaction kinetics of irreversible covalent inhibitor compounds may be assed in the following manner. Inhibitors (200 nL, 100× final concentration in DMSO) were diluted in reaction buffer (10 μL). Fluorogenic substrate (5 μL, 4× final concentration) was added and the reaction was started by addition of Cathepsin (5 μL, 4× final concentration). Fluorescence intensity was measured every 2 minutes for 60 minutes and fitted to equation I to obtain the Kobs. The obtained values were plotted against the inhibitor concentration and fitted to equation II to obtain kinetic parameters Kinact (rate of covalent bond formation) and Ki.
Kinetic evaluation of irreversible covalent inhibitors was conducted by following the progress curve of inhibition when the hydrolysis of substrate is started by addition of the enzyme (instead of incubating the protease with the inhibitor prior to addition of the substrate). From this curve the maximum rate of covalent bond formation (Kinact) could be determined (Table 4).

human osteoclasts (OCs) = test: Inhibition of bone resorption by human osteoclasts cultured on cortical bone slices; type: cell-based; details: for effective dose / concentration inhibiting bone resorption: human OCs on cortical bone slices, staining at day 21
Protocol: The inhibitory properties on CatK of inhibitors of this invention were tested in a biologically relevant setting: inhibition of bone resorption by osteoclasts (OCs). OCs are the cells that degrade the bone matrix by secretion of acid and CatK into the resorption lacunae, resulting in the cleavage of collagen type I. Inhibition of osteoclastic CatK was studied by culturing OCs on cortical bone slices in presence of inhibitors of this invention (FIG. 5). […] OCs predominantly form deep trenches (paths) while OCs lacking CatK form small pits (circular dots). B) CD14+ monocytes on bone slices were treated with MCSF (day 0) and RANKL (day 3) to stimulate differentiation to mature OCs. Medium containing either an inhibitor or DMSO was refreshed on day 7, 10, 13 and 16. At day 21, OCs were washed away and lysed, and bone slices were stained to visualize bone resorption. C) Bone resorption visualized by staining of resorption pits with Coomassie Brilliant Blue. More staining means more resorption pits, thus more bone resorption activity. Normal D) Schematic overview of pro-Cathepsin K activation. E) CatK activity and expression in OC lysates. […] Darker bands indicate more activity/expression of CatK.

[3] = in vivo; cited from earlier work
[4] = phase III clinical trials; cited from earlier work
CatK = molecular target: T2, CatK (Homo sapiens, UniProt P43235); details: cited from earlier work
T2 sequence (P43235 115-329): T1 sequence (P43235 115-329)

Sequence of hCatS (P25774 115-331): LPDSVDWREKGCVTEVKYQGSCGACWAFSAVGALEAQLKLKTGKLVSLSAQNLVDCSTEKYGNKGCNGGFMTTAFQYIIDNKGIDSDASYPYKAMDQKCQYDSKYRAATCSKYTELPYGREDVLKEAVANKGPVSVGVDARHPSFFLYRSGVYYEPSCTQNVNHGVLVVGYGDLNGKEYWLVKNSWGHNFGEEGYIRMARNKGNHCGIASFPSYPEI

Structure (SMILES) | selectivity for CatK over structurally related human Cathepsins (hCatK [1]) | IC50 (hCatK [1]) [nM] | IC50 (hCatS) [µM] | IC50 (hCatB) [µM] | kinact/Kl (hCatK [2]) [M⁻¹ min⁻¹] | Ki (hCatK [2]) [nM] | kinact (hCatK [2]) [s⁻¹] | effective dose / concentration inhibiting bone resorption (human osteoclasts (OCs)) | inhibition of bone resorption (human osteoclasts (OCs); all tested concentrations) | half-life [3] [h] | stroke risk [4] | selectivity for CatK versus other Cathepsins (CatK) | bone resorption staining of bone slices (human osteoclasts (OCs); 3 nM) | bone resorption staining of bone slices (human osteoclasts (OCs); 15 nM)
C#CCNC(=O)[C@H](CC(C)(C)F)N[C@@H](c1ccc(-c2ccc(S(C)(=O)=O)cc2)cc1)C(F)(F)F [Compound 4, (S)-4-fluoro-4-methyl-N-(prop-2-yn-1-yl)-2-(((S)-2,2,2-trifluoro-1-(4′-(methylsulfonyl)-[1,1′-biphenyl]-4-yl)ethyl)amino)pentanamide] | conserved | 293 ± 8.73 | 10.7 ± 0.842 | 9.39 ± 0.628 | 53000 | 212 | 0.000183 | ≥ 80 nM |  |  |  |  |  | 
C#CC(C)NC(=O)[C@H](CC(C)(C)F)N[C@@H](c1ccc(-c2ccc(S(C)(=O)=O)cc2)cc1)C(F)(F)F (mixture of isomers) [Compound 5, (S)—N—((R/S)-but-3-yn-2-yl)-4-fluoro-4-methyl-2-(((S)-2,2,2-trifluoro-1-(4′-(methylsulfonyl)-[1,1′-biphenyl]-4-yl)ethyl)amino)pentanamide] | conserved | 346 ± 11.6 | 15.9 ± 1.84 | 39.7 ± 4.34 | 15000 | 3250 | 0.000783 |  | non-conclusive |  |  |  |  | 
CC(C)(F)C[C@H](N[C@@H](c1ccc(-c2ccc(S(C)(=O)=O)cc2)cc1)C(F)(F)F)C(=O)NC1(C#N)CC1 [ODN, (S)—N-(1-cyanocyclopropyl)-4-fluoro-4-methyl-2-(((S)-2,2,2-trifluoro-1-(4′-(methylsulfonyl)-[1,1′-biphenyl]-4-yl)ethyl)amino)pentanamide, reference compound] |  | 0.56 ± 0.002 | 0.0243 ± 0.000569 | 0.0626 ± 0.0025 |  |  |  | around 15 nM |  | 66 to 93 | increased stroke risk | high selectivity | formation of deep trenches | formation of shallow pits
